Data published in patent publication US9968596B2 (Celgene Corporation, priority 2014, dated 2018).
Where a name gives a salt, the structure may show the parent alone.

Tested on: KG-1 cell line
Assay: Effect of test compounds on KG-1 cell proliferation (Cell Titer-Glo viability, 72 hours)
Type: cell-based
Conditions: Homo sapiens, read-out: FCA Prolif Cell TiterGlo KG-1 72 h (IC50)
Protocol: The anti-proliferative activity of the test compound was evaluated on KG-1 cell line (American Type Culture Collection [ATCC]: catalogue number ATCC® CCL-246™) at 72 hours post-treatment. The seeding density for KG-1 was optimized to ensure assay linearity in 384-well plates.
Increasing concentrations of the test compound (0.5 nM to 10 μM) were spotted in a 10-point serial dilution fashion (3-fold dilution) in duplicate via an acoustic dispenser (EDC ATS-100) into an empty 384-well plate. The dimethyl sulfoxide (DMSO) concentration was kept constant for a final assay concentration of 0.1% DMSO. Prior to testing, KG-1 cells were grown in RPMI-1640 (Roswell Park Memorial Institute—1640) medium with 10% FBS (fetal bovine serum: HyClone) and expanded in culture flasks to provide sufficient amounts of starting material. Cells were then diluted to 5000 cells per well, in a 50 μL volume and added directly to the compound-spotted 384-well plates. Cells were allowed to grow for 72 hours in 5% CO2 at 37° C. At the time when exposure of cells to compound began (t0), initial viable cell number was assessed via Cell Titer-Glo® Luminescent Cell Viability Assay at a 1 vol:2 vol ratio according to manufacturer's instructions (Promega Corporation, Madison, Wis.) by quantifying the level of luminescence generated by adenosine-5′-triphosphate (ATP) present in viable cells. After 72 hours, cell viability of t-treated cells was assessed via Cell Titer-Glo® and read for luminescence.

Compound	IC50
O=C1CCC(N2Cc3cc(CNC(=O)C(F)(F)C4(O)CCCC4)ccc3C2=O)C(=O)N1 (centres unmarked) [Example 66]	100 to 10000 nM
CC(C)(F)c1ccc(C(F)(F)C(=O)NCc2ccc3c(c2)CN(C2CCC(=O)NC2=O)C3=O)cc1 (centres unmarked) [Example 92]	50 to 100 nM
Nc1ncc(C(F)(F)C(=O)NCc2ccc3c(c2)CN(C2CCC(=O)NC2=O)C3=O)cn1 (centres unmarked) [Example 104]	100 to 10000 nM
COc1ccc(C(F)(F)C(=O)NCc2ccc3c(c2)CN(C2CCC(=O)NC2=O)C3=O)cc1 (centres unmarked) [Example 3]	100 to 10000 nM
CS(=O)(=O)c1cccc(C(F)(F)C(=O)NCc2ccc3c(c2)CN(C2CCC(=O)NC2=O)C3=O)c1 (centres unmarked) [Example 103]	100 to 10000 nM
O=C1CCC(N2Cc3cc(CNC(=O)C(F)(F)c4ccc(C5CC5)cn4)ccc3C2=O)C(=O)N1 (centres unmarked) [Example 97]	100 to 10000 nM
Cn1nc(C(F)(F)C(=O)NCc2ccc3c(c2)CN(C2CCC(=O)NC2=O)C3=O)ccc1=O (centres unmarked) [Example 107]	100 to 10000 nM
O=C1CCC(N2Cc3cc(CNC(=O)C(F)(F)c4c(F)cccc4F)ccc3C2=O)C(=O)N1 (centres unmarked) [Example 14]	100 to 10000 nM
CC(C)(C)c1ccc(C(F)(F)C(=O)NCc2ccc3c(c2)CN(C2CCC(=O)NC2=O)C3=O)nc1 (centres unmarked) [Example 96, hydrochloride]	10 to 50 nM
O=C1CCC(N2Cc3cc(CNC(=O)C(F)(F)c4ccc(F)cc4OC(F)(F)F)ccc3C2=O)C(=O)N1 (centres unmarked) [Example 100]	50 to 100 nM
O=C1CCC(N2Cc3cc(CNC(=O)C(F)(F)c4ccc(F)c(F)c4)ccc3C2=O)C(=O)N1 (centres unmarked) [Example 23]	100 to 10000 nM
CN1CCN(c2cccc(C(F)(F)C(=O)NCc3ccc4c(c3)CN(C3CCC(=O)NC3=O)C4=O)c2)CC1 (centres unmarked) [Example 114, hydrochloride]	100 to 10000 nM
O=C1CCC(N2Cc3cc(CNC(=O)C(F)(F)c4ccc(F)cc4)ccc3C2=O)C(=O)N1 (centres unmarked) [Example 5]	10 to 50 nM
O=C1CCC(N2Cc3cc(CNC(=O)C(F)(F)c4cccc(F)c4)ccc3C2=O)C(=O)N1 (centres unmarked) [Example 24]	100 to 10000 nM
CC(C)Oc1ccc(C(F)(F)C(=O)NCc2ccc3c(c2)CN(C2CCC(=O)NC2=O)C3=O)cc1 (centres unmarked) [Example 22]	10 to 50 nM
O=C1CCC(N2Cc3cc(CNC(=O)C(F)(F)c4ccccc4Cl)ccc3C2=O)C(=O)N1 (centres unmarked) [Example 8]	100 to 10000 nM
Cc1ccccc1C(F)(F)C(=O)NCc1ccc2c(c1)CN(C1CCC(=O)NC1=O)C2=O (centres unmarked) [Example 15, N-((2-(2,6-dioxopiperidin-3-yl)-1-oxoisoindolin-5-yl)methyl)-2,2-difluoro-2-(o-tolyl)acetamide]	10 to 50 nM
